The source of these data is ChEMBL document CHEMBL5614367, “Hydroxamic acid hybrids: Histone deacetylase inhibitors with anticancer therapeutic potency” (Eur J Med Chem, 2023).

Structures are written as SMILES.

The term IC50 denotes the concentration needed to halve the response being measured. As usually defined, the ILS is how much longer treated animals lived than controls.

Series [1] addresses T1, Histone deacetylase 1 (Homo sapiens, UniProt Q13547). Kind of series: Inhibition of human HDAC1 by colorimetric ELISA assay. Background: In an ELISA, binding on a coated surface is turned into a signal by an enzyme label.
Series [2] relates to HCT-116. Kind of series: Antiproliferative activity against human HCT-116 cells assessed as reduction in cell growth measured for 48 hrs by MTT assay. Type of series: functional, cell-based. Conditions: HCT-116, 48 h. (Tetrazolium assays rely on reduction of a dye to a coloured formazan, in cell work by metabolically active cells.)
In series [3] the test system is HepG2. Kind of series: Antiproliferative activity against human HepG2 cells assessed as reduction in cell growth measured for 48 hrs by MTT assay. The series is classed as functional, cell-based. The following applies: HepG2, 48 h.
Series [4] deals with MCF7. Kind of series: Antiproliferative activity against human MCF7 cells assessed as reduction in cell growth measured for 48 hrs by MTT assay. Type of series: functional, cell-based. Conditions: MCF7, 48 h.
In series [5] the target is T2, Histone deacetylase 2 (Homo sapiens, UniProt Q92769). Kind of series: Inhibition of human HDAC2 by colorimetric ELISA assay.
T2 sequence (Q92769 whole entry): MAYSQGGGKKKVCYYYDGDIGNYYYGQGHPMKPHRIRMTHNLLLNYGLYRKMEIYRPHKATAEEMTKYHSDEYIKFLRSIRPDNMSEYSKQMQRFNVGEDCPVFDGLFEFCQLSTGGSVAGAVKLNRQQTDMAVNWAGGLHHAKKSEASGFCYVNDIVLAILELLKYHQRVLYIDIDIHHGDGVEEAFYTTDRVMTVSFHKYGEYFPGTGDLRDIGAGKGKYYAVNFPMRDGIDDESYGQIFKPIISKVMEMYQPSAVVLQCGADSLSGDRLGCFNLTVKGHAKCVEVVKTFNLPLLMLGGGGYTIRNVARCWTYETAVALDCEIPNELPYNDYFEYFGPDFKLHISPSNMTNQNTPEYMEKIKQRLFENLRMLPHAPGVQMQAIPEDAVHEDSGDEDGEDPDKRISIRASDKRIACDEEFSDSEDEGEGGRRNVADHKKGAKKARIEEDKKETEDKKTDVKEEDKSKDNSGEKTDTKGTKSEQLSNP
The subject of series [6] is A549. Kind of series: Antiproliferative activity against human A549 cells assessed as reduction in cell growth measured for 48 hrs by MTT assay. The series is classed as functional, cell-based. The following applies: A549, 48 h.
Series [7] has as its system HCT-116. Kind of series: Antiproliferative activity against human HCT-116 cells measured after 24 hrs by MTT assay. Type of series: functional, cell-based. Conditions: HCT-116, 24 h.
The target in series [8] is T1, Histone deacetylase 1. Kind of series: Inhibition of human HDAC1 incubated for 30 mins by ELISA. The following applies: pooled result: one value given for 5 cell lines, strains, targets or settings.
The subject of series [9] is MCF7. Kind of series: Antiproliferative activity against human MCF7 cells measured after 24 hrs by MTT assay. The series is classed as functional, cell-based. Conditions: MCF7, 24 h.
Series [10] concerns HepG2. Kind of series: Antiproliferative activity against human HepG2 cells measured after 24 hrs by MTT assay. The series is classed as functional, cell-based. The following applies: HepG2, 24 h.
The subject of series [11] is Ehrlich. Kind of series: Antitumor activity against mouse EAC cells implanted in mouse assessed as increase in life span at 0.5 mg/kg, ip relative to control. Type of series: functional.
The test system of series [12] is Ehrlich. Kind of series: Antitumor activity against mouse EAC cells implanted in mouse assessed as reduction in tumor volume at 0.5 mg/kg, ip relative to control. Type of series: functional. More on the design: scale not given: the % may be the effect or the level left.
For series [13], the system named is HeLa. Kind of series: Antiproliferative activity against human HeLa cells measured after 24 hrs by MTT assay. The series is classed as functional, cell-based.
Series [14] concerns HL-60. Kind of series: Antiproliferative activity against human HL-60 cells assessed as cell growth inhibition by MTT assay. The series is classed as functional, cell-based.
In series [15] the test system is U-937. Kind of series: Antiproliferative activity against human U-937 cells assessed as cell growth inhibition by MTT assay. The series is classed as functional, cell-based.
The test system of series [16] is U-87 MG. Kind of series: Antiproliferative activity against human U87 cells assessed as reduction in cell growth incubated for 72 hrs by MTT assay. Type of series: functional, cell-based, U-87MG ATCC.
The subject of series [17] is U-251. Kind of series: Antiproliferative activity against human U-251 cells assessed as reduction in cell growth incubated for 72 hrs by MTT assay. Conditions: U-251, 72 h. The series is classed as functional, cell-based.
In series [18] the target is T1, Histone deacetylase 1. Kind of series: Inhibition of HDAC1 (unknown origin).
Series [19] in a line: Antitumor activity against mouse WEHI-3 cells implanted in mouse assessed as survival time at 25 mg/kg, ip (reference value: 16 day). The series is classed as functional.
Series [20] addresses T2, Histone deacetylase 2. Kind of series: Inhibition of HDAC2 (unknown origin).
The nature of series [21]: Cytotoxicity against human PBMC cells. The series is classed as toxicity, cell-based.
Series [22] in a line: Cytotoxicity against HEK293T cells. Type of series: toxicity, cell-based, HEK-293T. Conditions: human.
Series [23] in a line: Antitumor activity against mouse WEHI-3 cells implanted in mouse assessed as reduction in tumor growth at 25 mg/kg, ip relative to control. Type of series: functional. Also noted: scale not given: the % may be the effect or the level left.
Series [24] concerns the target Histone deacetylase 4 (Homo sapiens, UniProt P56524). Kind of series: Inhibition of HDAC4 (unknown origin).
The target of series [25] is T3, Protein deacetylase HDAC6 (Homo sapiens, UniProt Q9UBN7).
T3 sequence (Q9UBN7 whole entry): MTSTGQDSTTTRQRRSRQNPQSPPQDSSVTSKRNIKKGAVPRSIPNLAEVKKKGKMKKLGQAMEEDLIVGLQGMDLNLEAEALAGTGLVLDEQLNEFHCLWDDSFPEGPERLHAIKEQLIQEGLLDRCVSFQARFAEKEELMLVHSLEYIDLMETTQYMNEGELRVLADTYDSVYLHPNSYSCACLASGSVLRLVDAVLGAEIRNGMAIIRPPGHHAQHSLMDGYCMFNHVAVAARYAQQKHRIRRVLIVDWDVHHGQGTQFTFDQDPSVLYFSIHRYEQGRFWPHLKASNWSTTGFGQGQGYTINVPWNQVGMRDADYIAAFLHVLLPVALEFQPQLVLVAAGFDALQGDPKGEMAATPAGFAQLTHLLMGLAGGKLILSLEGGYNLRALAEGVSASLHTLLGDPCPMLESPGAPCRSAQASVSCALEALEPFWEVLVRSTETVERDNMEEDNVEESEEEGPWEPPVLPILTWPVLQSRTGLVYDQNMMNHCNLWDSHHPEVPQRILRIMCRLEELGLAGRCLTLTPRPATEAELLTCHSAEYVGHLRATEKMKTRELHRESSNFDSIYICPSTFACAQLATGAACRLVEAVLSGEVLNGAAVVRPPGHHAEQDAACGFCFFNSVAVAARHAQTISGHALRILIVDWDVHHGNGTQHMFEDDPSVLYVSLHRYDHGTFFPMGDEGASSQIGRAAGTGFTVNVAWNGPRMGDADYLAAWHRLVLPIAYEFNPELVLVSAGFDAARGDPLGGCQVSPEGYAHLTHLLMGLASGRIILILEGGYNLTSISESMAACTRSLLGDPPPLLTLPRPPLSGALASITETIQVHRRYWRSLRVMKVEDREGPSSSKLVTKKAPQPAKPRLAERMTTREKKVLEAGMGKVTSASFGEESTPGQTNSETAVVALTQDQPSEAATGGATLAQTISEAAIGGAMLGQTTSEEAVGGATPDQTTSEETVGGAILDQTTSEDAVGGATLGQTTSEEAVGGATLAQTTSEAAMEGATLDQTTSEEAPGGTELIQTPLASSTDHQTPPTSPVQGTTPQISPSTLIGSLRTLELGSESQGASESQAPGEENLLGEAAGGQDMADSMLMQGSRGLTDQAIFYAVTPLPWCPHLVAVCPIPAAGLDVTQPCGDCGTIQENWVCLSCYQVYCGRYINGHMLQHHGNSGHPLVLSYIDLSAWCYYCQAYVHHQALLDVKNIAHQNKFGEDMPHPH
Kind of series: Inhibition of HDAC6 (unknown origin).

The target in series [26] is Histone deacetylase 3 (Homo sapiens, UniProt O15379). Kind of series: Inhibition of HDAC3 (unknown origin).
Histone deacetylase 3, sequence (O15379 whole entry): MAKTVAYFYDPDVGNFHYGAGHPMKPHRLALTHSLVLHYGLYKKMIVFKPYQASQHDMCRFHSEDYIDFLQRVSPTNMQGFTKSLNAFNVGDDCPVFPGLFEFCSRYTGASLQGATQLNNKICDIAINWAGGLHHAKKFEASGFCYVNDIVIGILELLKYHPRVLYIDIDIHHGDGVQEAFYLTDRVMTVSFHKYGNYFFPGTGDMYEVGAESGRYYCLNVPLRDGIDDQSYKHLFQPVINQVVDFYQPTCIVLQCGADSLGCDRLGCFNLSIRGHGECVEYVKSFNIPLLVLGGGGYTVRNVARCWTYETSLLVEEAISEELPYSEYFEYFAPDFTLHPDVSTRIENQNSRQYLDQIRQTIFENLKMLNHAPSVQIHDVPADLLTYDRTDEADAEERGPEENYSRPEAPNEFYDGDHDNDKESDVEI
The test system of series [27] is SW-620. Kind of series: Antiproliferative activity against human SW620 cells. Type of series: functional, cell-based.
The subject of series [28] is MDA-MB-231. Kind of series: Antiproliferative activity against human MDA-MB-231 cells.
Series [29] has as its system PC-3. Kind of series: Antiproliferative activity against human PC-3 cells. The series is classed as functional, cell-based.

T1 sequence (Q13547 whole entry): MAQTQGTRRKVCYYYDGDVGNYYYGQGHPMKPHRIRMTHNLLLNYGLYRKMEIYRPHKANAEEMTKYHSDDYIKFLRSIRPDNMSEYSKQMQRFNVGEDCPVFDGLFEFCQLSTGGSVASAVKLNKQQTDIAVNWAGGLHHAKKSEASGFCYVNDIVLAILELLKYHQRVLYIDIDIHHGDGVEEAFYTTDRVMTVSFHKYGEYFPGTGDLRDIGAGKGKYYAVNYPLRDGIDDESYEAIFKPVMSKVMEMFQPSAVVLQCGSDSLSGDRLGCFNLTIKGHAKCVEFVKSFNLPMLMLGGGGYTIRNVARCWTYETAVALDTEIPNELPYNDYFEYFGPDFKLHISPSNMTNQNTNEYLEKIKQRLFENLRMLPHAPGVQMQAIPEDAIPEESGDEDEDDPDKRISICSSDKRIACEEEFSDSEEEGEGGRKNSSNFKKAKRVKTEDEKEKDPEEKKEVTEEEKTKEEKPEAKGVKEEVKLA
Histone deacetylase 4, sequence (P56524 whole entry): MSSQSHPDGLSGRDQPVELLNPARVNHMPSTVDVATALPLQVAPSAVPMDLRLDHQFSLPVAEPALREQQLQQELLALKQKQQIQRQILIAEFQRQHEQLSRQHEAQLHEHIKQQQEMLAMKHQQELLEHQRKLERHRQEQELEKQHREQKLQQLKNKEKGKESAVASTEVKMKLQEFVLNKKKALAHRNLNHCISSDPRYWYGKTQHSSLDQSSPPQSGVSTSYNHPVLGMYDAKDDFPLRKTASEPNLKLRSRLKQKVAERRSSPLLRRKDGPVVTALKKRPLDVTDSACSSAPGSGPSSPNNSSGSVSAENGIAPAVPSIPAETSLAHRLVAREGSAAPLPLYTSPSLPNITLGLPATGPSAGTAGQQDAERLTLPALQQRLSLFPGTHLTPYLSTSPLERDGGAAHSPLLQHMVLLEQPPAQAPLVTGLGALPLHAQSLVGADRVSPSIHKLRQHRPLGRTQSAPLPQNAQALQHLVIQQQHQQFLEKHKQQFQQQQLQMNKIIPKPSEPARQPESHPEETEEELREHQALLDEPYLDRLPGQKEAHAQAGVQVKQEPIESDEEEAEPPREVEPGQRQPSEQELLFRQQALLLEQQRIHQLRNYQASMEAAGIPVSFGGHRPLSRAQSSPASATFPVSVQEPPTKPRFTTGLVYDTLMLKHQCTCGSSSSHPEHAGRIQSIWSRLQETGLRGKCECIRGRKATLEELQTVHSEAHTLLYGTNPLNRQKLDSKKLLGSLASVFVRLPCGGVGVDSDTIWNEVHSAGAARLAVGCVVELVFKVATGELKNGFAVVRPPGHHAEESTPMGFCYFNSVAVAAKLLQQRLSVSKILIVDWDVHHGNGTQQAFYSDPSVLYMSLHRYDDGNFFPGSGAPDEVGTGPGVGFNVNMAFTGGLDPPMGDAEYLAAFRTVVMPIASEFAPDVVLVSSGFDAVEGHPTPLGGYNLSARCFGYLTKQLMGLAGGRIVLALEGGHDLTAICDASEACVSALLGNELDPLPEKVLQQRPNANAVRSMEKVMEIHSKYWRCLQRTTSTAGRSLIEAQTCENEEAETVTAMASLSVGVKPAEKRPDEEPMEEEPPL

Regarding `COc1cc(/C=C/C(=O)c2ccc(OCCCCCC(=O)NO)cc2)cc(OC)c1OC`, the IC50 in [1] stood at 60 nM; in [2], 536 nM; in series [3] it was 536 nM; in series [4] it was 536 nM; in series [5], 60 nM; in [6], 536 nM.

Regarding `CCCC(CCC)C(=O)N[C@@H](Cc1ccccc1)C(=O)NO`, the IC50 in [7] amounted to 9620 nM; in series [8] it was 2.86 nM; in series [9], 9620 nM; in series [10], 9620 nM; in series [13], 9620 nM. In addition, the ILS at 0.5 mg/kg in [11] was 131%. In addition, in series [12], the Activity is reported as approximately 36%.

As to `O=C(O)CCCc1ccc(N(CCCl)CCCl)cc1` [CHLORAMBUCIL], the IC50 was 21100 nM in series [14] and 37700 nM in [15].

As to `O=C(CCCCCNC(=O)c1cc(O)c2c(c1)C(=O)c1cccc(O)c1C2=O)NO`, the IC50 in series [16] and in [17] was 5500 nM each time.

Turning to `CNCCOc1ccc(-c2cc(=O)c3cc(OCCCCCC(=O)NO)cc(O)c3o2)cc1`, the IC50 came to 30 nM in series [18]; 30 nM in series [20]; 11600 nM in series [21]; 9490 nM in series [22]; 30 nM in [24]; 30 nM in series [25]. Besides, the IC50 in [26] was 30 nM. For the same compound, in series [19], the Survival was found to be 27 days. The Activity in [23] is given as approximately 65%.

Consider `O=C(/C=C/c1ccc2nn(Cc3ccc(Cl)cc3)cc2c1)NO`, for which the IC50 amounted to 196 nM in series [27], 196 nM in series [28], 196 nM in series [29] and 231 nM in series [25].
